Measurements from patent US12077503B2, “Substituted cyclic amides and their use as herbicides” (FMC CORPORATION, priority 2015, dated 2024).

Tests used:
Assay type in all cases: in vivo
rice (Oryra sativa) = experiment: Test B flooded paddy test; settings: Oryza sativa, 250 g ai/ha, Flood; 0 to 100 scale where 0 is no effect and 100 is complete control; read-out: Rice plant response rating
Outline: (§1)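 Greenhouse paddy pots with 2-leaf stage plants received compound by direct addition to floodwater 3 cm deep, kept at that level. Scored visually at 13–15 d versus controls (0 no effect; 100 complete control).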

[1] = test system: sedge, umbrella (small-flower umbrella sedge, Cyperus difformis); experiment: Test B flooded paddy test; settings: Cyperus difformis, 250 g ai/ha, Flood; 0 to 100 scale where 0 is no effect and 100 is complete control; read-out: Sedge, Umbrella plant response rating
Outline: as §1

[2] = test system: ducksalad (Heteranthera limosa); experiment: Test B flooded paddy test; settings: Heteranthera limosa, 250 g ai/ha, Flood; 0 to 100 scale where 0 is no effect and 100 is complete control; read-out: Ducksalad plant response rating
Outline: as §1

[3] = test system: barnyardgrass (Echinochloa crus-galli); experiment: Test B flooded paddy test; settings: Echinochloa crus-galli, 250 g ai/ha, Flood; 0 to 100 scale where 0 is no effect and 100 is complete control; read-out: Barnyardgrass plant response rating
Outline: as §1

[4] = test system: pigweed (Amaranthus retroflexus); experiment: Test A preemergence; settings: Amaranthus retroflexus, pre-emergence, 240 h, preemergence, read-out: Pigweed plant response rating; for pest or weed control at 125 g/ha: 125 g ai/ha, approx. 10 d; for pest or weed control at 500 g/ha: 500 g ai/ha
[5] = test system: giant foxtail (Setaria faberii); experiment: Test A postemergence; settings: Setaria faberi, post-emergence, 240 h, postemergence, read-out: Foxtail, Giant plant response rating; for pest or weed control at 125 g/ha: 125 g ai/ha, visual injury on 0 to 100 scale (0 no effect, 100 complete control), approx. 10 d; for pest or weed control at 500 g/ha: 500 g ai/ha, 0 to 100 scale, 0 is no effect, 100 is complete control
Outline: (§2)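 Preemergence directed soil spray on seeded pots, or postemergence application to plants 2–10 cm, one- to two-leaf. Solvent mixture non-phytotoxic, with surfactant. Scored ~10 d later, visually, 0–100 vs untreated.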

[6] = test system: wheat (Triticum aestivum); experiment: Test A postemergence; settings: Triticum aestivum, post-emergence, 240 h, postemergence, read-out: Wheat plant response rating; for plant injury at 125 g/ha: 125 g ai/ha, visual injury on 0 to 100 scale (0 no effect, 100 complete control), approx. 10 d; for plant injury at 500 g/ha: 500 g ai/ha, 0 to 100 scale, 0 is no effect, 100 is complete control
Outline: as §2

[7] = test system: ryegrass, Italian (Italian ryegrass, Lolium multiflorum); experiment: Test A postemergence; settings: Lolium multiflorum, post-emergence, 240 h, postemergence, read-out: Ryegrass, Italian plant response rating; for pest or weed control at 125 g/ha: 125 g ai/ha, visual injury on 0 to 100 scale (0 no effect, 100 complete control), approx. 10 d; for pest or weed control at 500 g/ha: 500 g ai/ha, 0 to 100 scale, 0 is no effect, 100 is complete control
Outline: as §2

[8] = test system: pigweed (Amaranthus retroflexus); experiment: Test A postemergence; settings: Amaranthus retroflexus, post-emergence, 240 h, postemergence, read-out: Pigweed plant response rating; for pest or weed control at 125 g/ha: 125 g ai/ha, visual injury on 0 to 100 scale (0 no effect, 100 complete control), approx. 10 d; for pest or weed control at 500 g/ha: 500 g ai/ha, 0 to 100 scale, 0 is no effect, 100 is complete control
Outline: as §2

Kochia (Kochia scoparia) = experiment: Test A postemergence; settings: Bassia scoparia, post-emergence, 240 h, postemergence, read-out: Kochia plant response rating; for pest or weed control at 125 g/ha: 125 g ai/ha, visual injury on 0 to 100 scale (0 no effect, 100 complete control), approx. 10 d; for pest or weed control at 500 g/ha: 500 g ai/ha, 0 to 100 scale, 0 is no effect, 100 is complete control
Outline: as §2

[9] = test system: blackgrass (Alopecurus myosuroides); experiment: Test A postemergence; settings: Alopecurus myosuroides, post-emergence, 240 h, postemergence, read-out: Blackgrass plant response rating; for pest or weed control at 125 g/ha: 125 g ai/ha, visual injury on 0 to 100 scale (0 no effect, 100 complete control), approx. 10 d; for pest or weed control at 500 g/ha: 500 g ai/ha, 0 to 100 scale, 0 is no effect, 100 is complete control
Outline: as §2

corn (Zea mays) = experiment: Test A postemergence; settings: Zea mays, post-emergence, 240 h, postemergence, read-out: Corn plant response rating; for plant injury at 125 g/ha: 125 g ai/ha, visual injury on 0 to 100 scale (0 no effect, 100 complete control), approx. 10 d; for plant injury at 500 g/ha: 500 g ai/ha, 0 to 100 scale, 0 is no effect, 100 is complete control
Outline: as §2

[10] = test system: barnyardgrass (Echinochloa crus-galli); experiment: Test A postemergence; settings: Echinochloa crus-galli, post-emergence, 240 h, postemergence, read-out: Barnyardgrass plant response rating; for pest or weed control at 125 g/ha: 125 g ai/ha, visual injury on 0 to 100 scale (0 no effect, 100 complete control), approx. 10 d; for pest or weed control at 500 g/ha: 500 g ai/ha, 0 to 100 scale, 0 is no effect, 100 is complete control
Outline: as §2

[11] = test system: ragweed (common ragweed, Ambrosia elatior); experiment: Test A postemergence; settings: Ambrosia artemisiifolia, post-emergence, 240 h, postemergence, read-out: Ragweed plant response rating; for pest or weed control at 125 g/ha: 125 g ai/ha, visual injury on 0 to 100 scale (0 no effect, 100 complete control), approx. 10 d; for pest or weed control at 500 g/ha: 500 g ai/ha, 0 to 100 scale, 0 is no effect, 100 is complete control
Outline: as §2

[12] = test system: Galium (catchweed bedstraw, Galium aparine); experiment: Test A postemergence; settings: Galium, post-emergence, 240 h, postemergence, read-out: Galium plant response rating; for pest or weed control at 125 g/ha: 125 g ai/ha, visual injury on 0 to 100 scale (0 no effect, 100 complete control), approx. 10 d; for pest or weed control at 500 g/ha: 500 g ai/ha, 0 to 100 scale, 0 is no effect, 100 is complete control
Outline: as §2

[13] = 0 to 100 scale where 0 is no effect and 100 is complete control

CN1C[C@H](c2cc(C(F)F)cs2)[C@@H](C(=O)Nc2ccccc2F)C1=O [Compound 1120]
pest or weed control at 250 g/ha (rice (Oryra sativa)): 20%
pest or weed control at 250 g/ha [1]: 0%
pest or weed control at 250 g/ha [2]: 100%
pest or weed control at 250 g/ha [3]: 65%
pest or weed control at 125 g/ha [4, 13]: 0%
pest or weed control at 500 g/ha [4, 13]: 50%
pest or weed control at 125 g/ha [5]: 90%
pest or weed control at 500 g/ha [5]: 90%
plant injury at 125 g/ha [6]: 20%
plant injury at 500 g/ha [6]: 50%
pest or weed control at 125 g/ha [7]: 20%
pest or weed control at 500 g/ha [7]: 40%
pest or weed control at 125 g/ha [8]: 0%
pest or weed control at 500 g/ha [8]: 20%
pest or weed control at 125 g/ha (Kochia (Kochia scoparia)): 20%
pest or weed control at 500 g/ha (Kochia (Kochia scoparia)): 70%
pest or weed control at 125 g/ha [9]: 30%
pest or weed control at 500 g/ha [9]: 50%
plant injury at 125 g/ha (corn (Zea mays)): 0%
plant injury at 500 g/ha (corn (Zea mays)): 60%
pest or weed control at 125 g/ha [10]: 90%
pest or weed control at 500 g/ha [10]: 90%
pest or weed control at 125 g/ha [11]: 0%
pest or weed control at 500 g/ha [11]: 50%
pest or weed control at 125 g/ha [12]: 40%
pest or weed control at 500 g/ha [12]: 60%

CN1C[C@H](c2cscn2)[C@@H](C(=O)Nc2ccccc2F)C1=O [Compound 1112]
pest or weed control at 250 g/ha (rice (Oryra sativa)): 15%
pest or weed control at 250 g/ha [1]: 40%
pest or weed control at 250 g/ha [2]: 0%
pest or weed control at 250 g/ha [3]: 0%
pest or weed control at 125 g/ha [4, 13]: 0%
pest or weed control at 500 g/ha [4, 13]: 0%
pest or weed control at 125 g/ha [5]: 0%
pest or weed control at 500 g/ha [5]: 0%
plant injury at 125 g/ha [6]: 0%
plant injury at 500 g/ha [6]: 0%
pest or weed control at 125 g/ha [7]: 0%
pest or weed control at 500 g/ha [7]: 0%
pest or weed control at 125 g/ha [8]: 0%
pest or weed control at 500 g/ha [8]: 0%
pest or weed control at 125 g/ha (Kochia (Kochia scoparia)): 0%
pest or weed control at 500 g/ha (Kochia (Kochia scoparia)): 0%
pest or weed control at 125 g/ha [9]: 0%
pest or weed control at 500 g/ha [9]: 0%
plant injury at 125 g/ha (corn (Zea mays)): 0%
plant injury at 500 g/ha (corn (Zea mays)): 0%
pest or weed control at 125 g/ha [10]: 0%
pest or weed control at 500 g/ha [10]: 0%
pest or weed control at 125 g/ha [11]: 0%
pest or weed control at 500 g/ha [11]: 0%
pest or weed control at 125 g/ha [12]: 0%
pest or weed control at 500 g/ha [12]: 0%

CN1C[C@H](c2cc(F)cc(F)c2)[C@@H](C(=O)Nc2ccncc2F)C1=O [Compound 1095]
pest or weed control at 250 g/ha (rice (Oryra sativa)): 0%
pest or weed control at 250 g/ha [1]: 0%
pest or weed control at 250 g/ha [2]: 50%
pest or weed control at 250 g/ha [3]: 0%
pest or weed control at 125 g/ha [4, 13]: 0%
pest or weed control at 500 g/ha ([4]; visual injury rating about 10 d after treatment, 0 to 100 scale (0 no effect, 100 complete control)): 30%
pest or weed control at 125 g/ha [5]: 0%
pest or weed control at 500 g/ha [5]: 0%
plant injury at 125 g/ha [6]: 0%
plant injury at 500 g/ha [6]: 0%
pest or weed control at 125 g/ha [7]: 0%
pest or weed control at 500 g/ha [7]: 0%
pest or weed control at 125 g/ha [8]: 0%
pest or weed control at 500 g/ha [8]: 0%
pest or weed control at 125 g/ha (Kochia (Kochia scoparia)): 0%
pest or weed control at 500 g/ha (Kochia (Kochia scoparia)): 0%
pest or weed control at 125 g/ha [9]: 0%
pest or weed control at 500 g/ha [9]: 0%
plant injury at 125 g/ha (corn (Zea mays)): 0%
plant injury at 500 g/ha (corn (Zea mays)): 0%
pest or weed control at 125 g/ha [10]: 0%
pest or weed control at 500 g/ha [10]: 0%
pest or weed control at 125 g/ha [11]: 0%
pest or weed control at 500 g/ha [11]: 0%
pest or weed control at 125 g/ha [12]: 0%
pest or weed control at 500 g/ha [12]: 0%
